Values of other authors in patent US20090030403A1, “Methods and Systems for Attenuating the Tolerance Response to a Drug” (priority 2007, published 2009).
Read-outs that look alike come from different tables or passages of the source.

What was measured:
[1] = not given; remark: listed apart in the source
[2] = not given; remark: listed apart in the source
[3] = test system: maximal electroshock seizures; settings: compared with ethosuximide
[4] = not given; remark: listed apart in the source
sodium channels = settings: in vitro
T-type Ca^2+ currents = settings: in vitro
[5] = test system: GABA/benzodiazepine receptor ionophore complex; settings: in vitro
[6] = test system: cultured mouse spinal cord neurons; settings: 10-30 μg/mL
rat hippocampal slices = settings: 10-30 μg/mL
[7] = test system: dopaminergic and serotonergic neurotransmission; settings: in vivo microdialysis
partial seizures = settings: adjunctive therapy, partial seizures in adults
[8] = system removing the drug or its metabolites
[9] = system responsible for the drug's metabolism

SMILES	Half life (in vivo)	Excretion [8]	Metabolism [9]	Bioavailability (in vivo)	further results
Cc1ccsc1C(=CCCN1CCC[C@@H](C(=O)O)C1)c1sccc1C [Tiagabine]	7 to 9 h	Fecal and renal	Hepatic (CYP450 system)		
O=C1NC(c2ccccc2)(c2ccccc2)C(=O)N1COP(=O)(O)O [Fosphenytoin]					Half life (to convert to phenytoin): 15 minutes to convert to phenytoin
O=C1CN=C(c2ccccc2)c2cc([N+](=O)[O-])ccc2N1 [Nitrazepam]	20 to 40 h		Hepatic		Excretion (in vivo): Renal
CCC1(c2ccccc2)C(=O)NCNC1=O [Primidone]	Primidone: 5-15 hours,	Renal	Hepatic	>90%	Plasma concentration of the drug during long term therapy ([1]; per daily dose of 1 mg/kg): about 1 μg/ml
CC(C)C[C@H](CN)CC(=O)O [Pregabalin]	5 to 6.5 h	Renal	Negligible	≧90%	
NC(=O)N1c2ccccc2C=Cc2ccccc21 [Carbamazepine]	25 to 65 h		hepatic CYP3A4 to active epoxide form		Excreted unchanged (in urine where stated): 2-3% excreted unchanged in urine
CCC1(C)OC(=O)N(C)C1=O (centres unmarked) [Paramethadione]					Protein binding (in words) [2]: Not significant
NS(=O)(=O)c1ccc(N2CCCCS2(=O)=O)cc1 [Sultiame]	24 hour hours	Fecal (10%) and renal (90%)	Hepatic secretion		Bioavailability (oral): 100% (oral)
CC(=O)Nc1nnc(S(N)(=O)=O)s1 [Acetazolamide]	3 to 9 h				
O=C1NC(=O)C(c2ccccc2)(c2ccccc2)N1 [Phenytoin, Diphenylhydantoin]	22 h	Primarily through the bile	hepatic		Bioavailability (oral): 70-100%; Bioavailability (rectal and intravenous administration): 24.4%; Concentration at which toxic effects such as nystagmus develop ([1]; in vivo): around 20 μg/ml; Therapeutic (plasma) concentration for control of seizures ([1]; in vivo): above 10 μg/ml
CCN1C(=O)NC(c2ccccc2)C1=O (centres unmarked) [Ethotoin]	3 to 9 h				
NC(=O)CCC/N=C(\c1ccc(Cl)cc1)c1cc(F)ccc1O [Progabide]	4 h	Renal	Hepatic	0.6	
Nc1nnc(-c2cccc(Cl)c2Cl)c(N)n1 [Lamotrigine]		Renal	Hepatic		Half life (healthy adults): 24 to 34 h (healthy adults)
CN1C(=O)CC(c2ccccc2)C1=O (centres unmarked) [Phensuximide]					Activity against maximal electroshock seizures [3]: more active against maximal electroshock seizures
CC1(C)O[C@@H]2[C@@H](CO[C@@]3(COS(N)(=O)=O)OC(C)(C)O[C@@H]23)O1 [Topiramate, 2,3:4,5-bis-O-(1-methylethylidene)-beta-D-fructopyranose sulfamate]	19 to 23 h				Metabolism, hepatic share (in vivo): 30%
NC(=O)OCC(COC(N)=O)c1ccccc1 [Felbamate]	20 to 23 h		Hepatic	>90%	
CCCC(C)(COC(N)=O)COC(N)=O [Meprobamate]	10 h	Renal	Hepatic		
CCC1(c2ccccc2)NC(=O)N(C)C1=O (centres unmarked) [Mephenytoin]	7 h				

SMILES	Half life (in vivo)	Excretion [8]	Metabolism [9]	Bioavailability (in vivo)	further results
CN1C(=O)CC(=O)N(c2ccccc2)c2cc(Cl)ccc21 [Clobazam]	18 h	Renal	Hepatic		
CC[C@@H](C(N)=O)N1CCCC1=O [Levetiracetam, α-ethyl-2-oxo-1-pyrrolidineacetamide]	6 to 8 h	Renal	Renal		
O=C(O)C1N=C(c2ccccc2)c2cc(Cl)ccc2NC1=O (centres unmarked) [Clorazepate]	36 to 100 h	Renal	Hepatic	0.91	
Cc1ncc2n1-c1ccc(Cl)cc1C(c1ccccc1F)=NC2 [Midazolam]	1.8 to 6.4 h				Excretion (in vivo): Renal; Metabolism (in vivo): Hepatic; Bioavailability (in vivo, im): I.M. 90%+; Bioavailability (in vivo, po): Oral ~36%; Time to Clinical Onset ([4]; Buccal): 5 to 8 min; Time to Clinical Onset ([4]; Intramuscular): 1 to 5 min; Time to Clinical Onset ([4]; Intravenous): 1 to 5 min
CCC1(c2ccccc2)C(=O)NC(=O)NC1=O [Phenobarbital]	53 to 118 h			>95%	Excretion (in vivo): Renal and fecal; Plasma concentration during long term therapy ([1]; adults, per daily dose of 1 mg/kg): about 10 μg/ml
O=C1CN=C(c2ccccc2Cl)c2cc([N+](=O)[O-])ccc2N1 [Clonazepam]	30 to 40 h			0.9	Excretion (in vivo): Renal; Metabolism (in vivo): Hepatic CYP3A4
CN1C(=O)CN=C(c2ccccc2)c2cc(Cl)ccc21 [Diazepam]					Time to Clinical Onset ([4]; Rectal): 5 to 15 min
C=CC(N)CCC(=O)O (centres unmarked) [Vigabatrin]		Renal	Almost no metabolic transformation occurs	80-90%	Half life (the elderly): 12 to 13 h; Half life (young adults): 5 to 8 h
NCC1(CC(=O)O)CCCCC1 [Gabapentin]	5 to 7 h		not appreciably metabolized	60% for 0.9 g daily to 27% for 4.8 g daily dose	Bioavailability (absorption in words) (in vivo): Rapid, in part by saturable carrier-mediated L-; Excretion (in vivo): Renal; Food increases absorption by (in vivo): Food increases absorption by 14%
O=C1Nc2ccc(Cl)cc2C(c2ccccc2Cl)=NC1O (centres unmarked) [Lorazepam]	10 to 20 h	Renal	Hepatic		
NC(=O)N1c2ccccc2CC(=O)c2ccccc21 [Oxcarbazepine]				>95%	Half life (healthy adults): 1 to 5 h (healthy adults)
NC(=O)NC(=O)Cc1ccccc1 [Phenacemide]	22 to 25 h				
CN1C(=O)CC(C)(c2ccccc2)C1=O (centres unmarked) [Mesuximide]	1.4 to 2.6 h (mesuximide)	Renal	Hepatic (demethylation and glucuronidation)		Activity against maximal electroshock seizures [3]: more active against maximal electroshock seizures; Half life (active metabolite): 28 to 38 h (active metabolite)
CCC(C)C(CC)C(N)=O (centres unmarked) [Valnoctamide]	10 h		Hepatic	94%[1]	
CCOc1ccc2nc(S(N)(=O)=O)sc2c1 [Ethoxzolamide]	2.5 to 5.5 h				Protein binding [2]: ~89%
NS(=O)(=O)Cc1noc2ccccc12 [Zonisamide, 1,2-benzisoxazole-3-methanesulfonamide]		Renal	Hepatic		Effect on sodium channels (sodium channels): blocks sodium channels; Effect on T-type Ca2+ currents (T-type Ca^2+ currents): reduces voltage-dependent, transient inward currents; Binding to GABA/benzodiazepine receptor ionophore complex [5]: binds to the GABA/benzodiazepine receptor ionophore complex in an allosteric fashion; Chloride flux [5]: does not produce changes in chloride flux; Synaptically-driven electrical activity [6]: suppresses synaptically-driven electrical activity; Postsynaptic GABA or glutamate responses ([6]; cultured mouse spinal cord neurons): without affecting; Neuronal or glial uptake of [3H]-GABA (rat hippocampal slices): without affecting; Dopaminergic and serotonergic neurotransmission [7]: facilitates both dopaminergic and serotonergic neurotransmission; Effective doses in controlled trials (partial seizures): 100 to 600 mg/day; Half life (in red blood cells): 105 h; Carbonic anhydrase inhibiting activity (carbonic anhydrase): weak
CCC1(C)CC(=O)NC1=O (centres unmarked) [Ethosuximide]	53 h	Renal (20%)	Hepatic (CYP3A4, CYP2E1)	93%[1]	Plasma concentration of the drug during long term therapy ([1]; per daily dose of 1 mg/kg): about 2 μg/ml
